Reference: US20200360249A1, “AN ANTIMICROBIAL COMPOSITION” (Conopco, Inc., d/b/a UNILEVER, priority 2017, published 2020)

Tests used:
Format in all cases: cell-based
M. furfur = assay: Antifungal activity, log reduction by plate count; conditions: M. furfur ATCC 14521; contact time 24 hr; 10 mg sample in 1000 μL inoculum, 10^5 cells/ml; 32° C.
Experimental: The samples as given in Table-1 were subjected to their anti fungal efficacy on M. furfur as described hereinafter.
Plate was at 30° C. for 72 hrs. Approximately 72 hrs prior to testing, the plate culture was inoculated onto the surface of another sterile Modified Dixon agar plate and incubated at 30° C. for approximately 72 hrs. From second subculture, the optical density of culture is adjusted at 620 nm to give cell strength of 10^7 cfu/ml. The culture was further diluted by 100 times to achieve 10^5 cfu/ml in Pityrosporum broth.
10 mg of each sample was thoroughly mixed by vortex and weighed into a sterile 1.5 ml Eppendorf tube. 1000 μL of M. furfur inocula were added to the above tubes and a blank sterile 1.5 ml Eppendorf tube (no particles as control), respectively so that the load in each tube is 10^5 cells/ml.
All the samples were shaken at 120 RPM in a shaker incubator at 32° C. After 24 hours incubation, 10 μL of the samples were withdrawn from the respective 1.5 ml Eppendorf tubes and diluted with 990 μL of Pityrosporum broth. This represents a 10^2 dilution. Serial dilution was performed from the above 24 hours inocula and plated 100 μL of dilution onto modified Dixon plate. Plate dilution 10^2, 10^3, 10^4 and […]. All the plates were kept for incubation at 32° C. for 24-72 hrs. Plate count for all the plates were done.

M. furfur ATCC 14521 = assay: Disc diffusion technique (agar cup method), zone of inhibition; conditions: test conc. 0.5 %, Modified Dixon agar, 72 hrs at 32 C, disc diameter 10 mm
Experimental: The plates are swabbed with 100 μl of test inoculum containing approximately 10^6 cells/ml. The swabbed plates are allowed to dry for 5 mins so to absorb excess of remaining culture fluid. The discs impregnated with different test solution were placed on the inoculated agar surface. Each plate was labelled with different test solution and their respective concentration used. The agar plates are incubated for 72 hrs at 32° C. Zones of inhibition are measured using calibrated mm ruler.
Media used: Modified Dixon agar
Incubation conditions: 72 hrs at 32 C
Diameter of disc used: 10 mm (Himedia make)

Staphylococcus aureus = assay: Antibacterial efficacy, log reduction by plate count; conditions: contact time 60 seconds, 40 mg sample in 100 ml water, pH 10, room temperature
Experimental: 40 mg of the powdered sample was dispersed in 100 ml deionised sterile water. The pH was maintained at 10 using NaOH. 8 ml of the solution was taken, to it 1 ml cell (1 mL bacterial suspension of Staphylococcus aureus (stock 10^9 cells/MI) and 1 ml of distilled water was added. The incubation was done at room temperature for 30 and 60 seconds respectively. 1 ml of the above reaction mixtures was taken and added to 9 ml of Dey-Engley Neutralizing Broth. This was further incubated for 5 minutes. This represents 10^−1 dilution. Serial dilutions were performed for plate count.

`NC(=O)c1ccccn1.[Zn]` [D, Zinc picolinamide] showed a Log reduction (M. furfur) of 1.92.

Zinc isoniacinamide [B] was tested, and the “zone of inhibition (mm)” value (M. furfur ATCC 14521) was 0 mm, the Log reduction (M. furfur) was 1.98 and the Log reduction (Staphylococcus aureus) was 0.9.

Compound Zinc niacinamide has a Log reduction (M. furfur) of 1.96.
